Test results from article PMC10876507, “Chelator impact: investigating the pharmacokinetic behavior of copper-64 labeled PD-L1 radioligands” (EJNMMI Radiopharmacy and Chemistry, 2024).
Values joined by “and” are separate entries in the source; they are usually repeats but may differ in a detail not shown here. Equal entries are not always repeated.

Key:
[1] = test system: PC3 PD-L1 and PC3 mock cells; assay: In vitro cell uptake in PC3 PD-L1 and PC3 mock cells; format: cell-based, human; conditions: for uptake/binding to PC3 PD-L1-positive cells vs PC3 mock cells: mixed-effects model, main effect of cell type; for incubation time at which cell uptake plateaued: PC3 cells, incubation 30–240 min at or close to KD
Procedure: Both the target-positive (PC3 PD-L1) and negative cells (PC3 mock) were seeded at ~60,000 cells per well two days prior to the experiment. At the time of experiment, cells were then incubated with the respective radioligand at or close to the KD (determined by saturation binding) in binding buffer. For each timepoint and radiotracer (30, 60, 120 and 240 min), a single plate was used (with triplicate measurements). Additional controls per plate included plastic retention, nonspecific binding [excess of unlabeled BMS-1166 (in DMSO, resulting in 0.03% v/v) for both PC3 PD-L1 and PC3 mock] and cells incubated with PBS only (protein control). Following incubation, cells were washed twice in ice-cold binding buffer, lysed in 500 μL of 0.1 M NaOH + 1% SDS and radioactivity was measured in a gamma counter (Perkin Elmer Wizard 1480) and decay corrected to a reference time (end of radiolabeling).
Protein content was determined for each timepoint and cell type by BCA assay.
Figure S27: Cell uptake (fmol/mg protein) of [64Cu]Cu-14&16 into either PC3 PD-L1 or PC3 mock cells. Uptake of both […]
effects model. Binding to PC3 mock cells is similar to that of PC3 PD-L1 and PC3 mock cells blocked with an excess of […]

PD-L1 [2] = target: T1, PD-L1 (Homo sapiens, UniProt Q9NZQ7); assay: Real-time radioligand binding (LigandTracer) on PC3 PD-L1 overexpressing cells, without BSA; design: expressed in transfected cells; host or cells: PC3 PD-L1 overexpressing cells; conditions: for Kd: PC3 PD-L1 overexpressing cells, room temperature, without BSA; for ka: association rate constant; for ka / kd: real-time binding; for kd: dissociation rate constant
Procedure: For the saturation binding experiments, cells were detached with 0.05% Trypsin–EDTA (Gibco, USA), and counted (CASY1 cell counter, Schaerfe System, Reutlingen, Germany). Cells were then diluted in medium to ~ 160,000 cells/mL and seeded in 48 well plates (Falcon Multiwell #353078, ThermoFisher, Karlsruhe, Germany) for at least 2 days prior to saturation binding experiments. For real-time radioligand binding, approximately 400,000 cells/mL were seeded into one side of petri dishes (3 mL, Nunclon, # 150350, ThermoFisher Germany) ~ 24 h before the experiments.
To investigate binding kinetics, including the association rate constant (ka) and dissociation rate constant (kd), as well as the dissociation constant (KD), a real-time assay system (LigandTracer Yellow or LigandTracer White, Ridgeview Instruments AB, Uppsala, Sweden) was utilized. The petri dish contained attached cells in medium (3 mL) on one side, while radioactivity was detected on the opposing side. The petri dish is set upon an inclined base, allowing continuous measurement of alternating portions of the dish for bound radioligand (cells) compared to the background signal (no cells). Binding experiments were carried out at room temperature using CO2-independent medium (Gibco #18045088, ThermoFisher Germany).
The association phase consisted of incubation with two concentrations (30 and 90 nM, each for 90 min) of our ^64Cu-labeled PD-L1-radioligands, binding to PC3 PD-L1 overexpressing cells. Following this, the incubation medium was replaced with fresh medium, and the dissociation phase was monitored for a minimum of 2 h. […] Data were recorded as decay-corrected counts per second (CPS). Subsequently, binding data were analyzed using TraceDrawer software (version 1.9.2, Ridgeview Instruments AB, Uppsala, Sweden). Traces were imported, potential spikes (instances of sudden CPS increases exceeding 100% of the previous data point) were eliminated, and each trace was normalized to its own baseline (set as 0%) and its maximum value (set as 100%).

PD-L1 [3] = target: T1, PD-L1; assay: Saturation binding assay on human PD-L1 transduced PC3 cells (assay buffer with 2.5% BSA); design: expressed in transfected cells; host or cells: PC3 cells transduced with human PD-L1 (PC3-PD-L1); conditions: for Kd: human PD-L1 transduced PC3 cells, on ice 90 min, PBS + 2.5% w/v BSA; for Bmax: saturation binding, pmol/mg protein, PC3 PD-L1 cells

T1 sequence (Q9NZQ7 19-290): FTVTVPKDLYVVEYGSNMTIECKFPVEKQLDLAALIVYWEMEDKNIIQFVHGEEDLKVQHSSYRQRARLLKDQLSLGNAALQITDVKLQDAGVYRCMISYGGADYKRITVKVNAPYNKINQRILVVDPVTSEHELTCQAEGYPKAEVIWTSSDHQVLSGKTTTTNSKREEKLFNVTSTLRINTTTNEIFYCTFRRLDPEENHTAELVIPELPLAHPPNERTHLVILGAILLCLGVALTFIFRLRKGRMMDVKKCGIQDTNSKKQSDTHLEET

Cc1c(COc2cc(OCc3cncc(S(C)(=O)=O)c3)c(CN[C@@H](CS(=O)(=O)O)C(=O)NCCS(=O)(=O)O)cc2Br)cccc1-c1cccc(OCc2cn(CCCN3CCN(C(=O)[C@H](CS(=O)(=O)O)NC(=O)CCCC(=O)NC45CNCCNCC(N)(CNCCNC4)CNCCNC5)CC3)nn2)c1C.[64Cu+2] [[^64Cu]Cu-16]
uptake/binding to PC3 PD-L1-positive cells vs PC3 mock cells ([1]; listed as [64Cu]Cu-16): significant main effect of target expression
Kd (PD-L1 [2]): 24.2 ± 0.93 nM
ka (PD-L1 [2]): (5.55 ± 0.31) × 10^3 (M × s)^–1
kd (PD-L1 [2]): (1.35 ± 0.09) × 10^–4 s^–1
Kd (PD-L1 [3]): 265 ± 12.5 nM
Bmax (PD-L1 [3]): 3.30 pmol/mg and 3.30 ± 0.46 pmol/mg

Cc1c(COc2cc(OCc3cncc(S(C)(=O)=O)c3)c(CN[C@@H](CS(=O)(=O)O)C(=O)NCCS(=O)(=O)O)cc2Br)cccc1-c1cccc(OCc2cn(CCCN3CCN(C(=O)[C@H](CS(=O)(=O)O)NC(=O)CC[C@H](C(=O)[O-])N4CCN(CC(=O)[O-])CCN(CC(=O)[O-])CC4)CC3)nn2)c1C.[64Cu+2] [[^64Cu]Cu-14]
incubation time at which cell uptake plateaued [1]: 60 min
incubation time at which cell uptake plateaued ([1]; listed as [64Cu]Cu-14): ≤ 60 min
uptake/binding to PC3 PD-L1-positive cells vs PC3 mock cells ([1]; listed as [64Cu]Cu-14): significant main effect of target expression
Kd (PD-L1 [2]): ~20 nM and 23.3 nM
ka (PD-L1 [2]): (5.06 ± 0.25) × 10^3 (M × s)^–1
kd (PD-L1 [2]): (1.17 ± 0.06) × 10^–4 s^–1
Kd (PD-L1 [3]): 100 nM
Bmax (PD-L1 [3]): 2.40 pmol/mg and 2.40 ± 0.48 pmol/mg
